One data set concerns the target CRBN proteins (Homo sapiens (Human), UniProt Q96SW2). The experiment in a line: CRBN affinity test. The class given is binding. Particulars: purified CRBN proteins expressed in E. coli. As for the experimental part:
First, CRBN proteins were expressed in E. coli and purified, and then the purified CRBN proteins were dissolved in a buffer solution (PBS). […] After the mixture was sufficiently mixed and reacted, the binding strength at each concentration was measured to collect data, and a binding curve was created therefrom (see FIG. 13), and the KD (equilibrium dissociation constant) values were derived therefrom (see Table 9 and FIG. 14).

The subject of the next data set is TA98 and TA100 strains. Particulars: positive controls. The procedure: First, TA98 and TA 100 strains, which detect frameshift mutations and point mutations, respectively, were cultured. Then, AST-DT-218 was dissolved in a solvent and diluted to various concentrations (20.5 μg/mL, 61.7 μg/mL 185.1 μg/mL, […], 1666.6 μg/mL, and 5000 μg/mL) to prepare an […] (a metabolic activation system; concentration: 30%) including liver enzyme extracts and supplements. Into a histidine-deficient medium at different concentrations of AST-DT-218, (i) the TA98 strain was inoculated without the […] (TA98−S9), (ii) the TA98 strain was inoculated by mixing it with the […] (TA98+S9), (iii) the TA100 strain was inoculated without the […] (TA100−S9), and (iv) the TA100 strain was inoculated by mixing it with the S9 mixture (TA100+S9). As a solvent control, which is a negative control, only the solvent was inoculated into a histidine-deficient medium, and only a pure solvent was used in the absence of any compound. […] After culturing for 48 to 72 hours in each medium, the number of colonies generated was counted to calculate the mutation rate, and the mutagenic effect was compared depending on the presence or absence of the S9 mixture to analyze the effect on metabolic activation.

The subject of a further data set is Hep3B. The experiment in a line: HCC cell survival by cell nuclear staining, 24 hours, Hep3B. The class given is cell-based. Particulars: Homo sapiens. As for the experimental part: (§1) An indication expansion experiment was performed to evaluate the potential of AST-DT-218 for treating hepatocellular carcinoma (HCC). First, HCC cell lines (Huh7, Hep3B, SNU449, and SNU475) were prepared, and AST-DT-218 and Sorafenib were at the highest concentration of 50 μM, serially diluted by half starting therefrom, thereby preparing 10 concentrations (50 μM, 25 μM, 12.5 μM, etc.). HCC cell lines (Huh7, Hep3B, SNU449, SNU475) were seeded into 96-well plates, in which each well was treated with AST-DT-218 and Sorafenib solutions, and the cells were cultured in an incubator for 24 hours. Then, the cell survival at each concentration was evaluated by measuring the cell count using cell nuclear staining, and a concentration-response curve of cell survival was created based on the data, and the IC50 value was derived.

Another data set has as its system Huh7. As to the kind of experiment: HCC cell survival by cell nuclear staining, 24 hours, Huh7. In kind it is cell-based. Particulars: Homo sapiens, Huh-7. As for the experimental part: as §1
A further data set deals with SNU449. As to the kind of experiment: HCC cell survival by cell nuclear staining, 24 hours, SNU449. The class given is cell-based. Particulars: Homo sapiens, SNU-449. The procedure: as §1

Structures are written as SMILES.

CRBN proteins, sequence (Q96SW2 whole entry): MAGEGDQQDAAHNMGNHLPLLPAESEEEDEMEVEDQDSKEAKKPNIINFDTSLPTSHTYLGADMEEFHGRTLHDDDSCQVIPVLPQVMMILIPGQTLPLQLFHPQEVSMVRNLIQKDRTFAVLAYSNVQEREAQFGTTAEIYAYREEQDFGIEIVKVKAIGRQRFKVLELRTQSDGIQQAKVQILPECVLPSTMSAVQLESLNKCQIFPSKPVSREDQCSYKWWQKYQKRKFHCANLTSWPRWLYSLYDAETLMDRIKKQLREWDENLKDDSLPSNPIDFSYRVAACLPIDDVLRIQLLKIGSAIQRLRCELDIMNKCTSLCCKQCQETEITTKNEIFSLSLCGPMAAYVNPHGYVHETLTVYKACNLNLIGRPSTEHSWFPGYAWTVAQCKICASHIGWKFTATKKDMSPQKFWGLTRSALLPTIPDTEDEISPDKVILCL

Consider `CCCC(C)Nc1cccc2c1C(=O)N(C1CCC(=O)NC1=O)C2=O` (stereo in doubt) [AST-DT-135, 2-(2,6-dioxopiperidin-3-yl)-4-(((S)-pentan-2-yl)amino)isoindoline-1,3-dione], for which the Kd at CRBN proteins was 29 nM. That is a double-digit nanomolar value. As to `C[C@H](CO)Nc1cccc2c1C(=O)N(C1CCC(=O)NC1=O)C2=O` (stereo partly drawn) [AST-DT-220, 2-(2,6-dioxopiperidin-3-yl)-4-(((R)-1-hydroxypropan-2-yl)amino)isoindoline-1,3-dione], the Kd on CRBN proteins was determined as 52 nM. Consider `Nc1ccc2cc3ccccc3cc2c1` [Example 2-AA, 2-aminoanthracene], for which the “number of mutant colonies” value in the data set on TA98 and TA100 strains is listed as “significant increase”. Turning to `O=[N+]([O-])c1ccc2c(c1)Cc1ccccc1-2` [Example 2-NF, 2-nitrofluorene], the “number of mutant colonies” value with TA98 and TA100 strains is recorded as “significant increase”. As for `CNC(=O)c1cc(Oc2ccc(NC(=O)Nc3ccc(Cl)c(C(F)(F)F)c3)cc2)ccn1` [Sorafenib, reference compound], the concentration for half-maximal inhibition (IC50) in the data set on Hep3B worked out at 5.67 µM; in the data set on Huh7, 4.37 µM; in the data set with SNU449, 11.3 µM.

The term Kd denotes a measure of binding affinity in units of concentration. A low value points to tighter binding. A word on the IC50: it is the midpoint of a concentration-inhibition curve. Read a low IC50 as higher potency.

For the origin of these results see patent US20250129041A1, “MOLECULAR GLUE AND USES THEREOF” (ASTROGEN, INC., priority 2023, published 2025).
